According to patent US11478464B1, “Method for treating inflammation” (KING FAISAL UNIVERSITY, priority 2022, dated 2022):
Where “and” joins values, the source holds several entries; their conditions need not be identical. Equal values may be shown once. Entries after “also recorded” stand apart in the source; their conditions may differ. Read-outs that look alike come from different tables or passages of the source.

Tests used:
rat stomach [1] = experiment: Ulcerogenic effect on rat stomach (histopathology); type: in vivo; conditions: 20 mg/kg oral single dose, 24 hours; for Rat stomach gastric layers, H&E: 10×; for Rat stomach inflammatory reaction, H&E: 40×
[2] = system: carrageenan-induced rat paw edema; experiment: Carrageenan-induced paw edema in rats; type: in vivo; conditions: 10 mg/kg oral; for Paw size: individual rats; for Paw size, Average: average over all measurements 0-5 hours
Protocol: Carrageenan was injected subcutaneously into a rodent's paw to generate inflammation due to plasma extravasation, tissue proliferation, plasma protein release, and neutrophilic extravasation, all of which are caused by arachidonic acid digestion. The major phase of inflammation occurs after the carrageenan infusion, and lasts about two hours. This primary stage is associated with the emergence of histamine and serotonin. The next stage frequently is remodeling and edema, which lasts about five hours and begins at about the third hour after administration of carrageenan. The appearance of prostaglandins, proteases, and lysosomes is associated with this second stage of inflammation.
Adult male albino rats weighing 120 g-150 g were divided into five groups of seven rats, allowed free access to food and water at 25° C. and 12 h light/dark cycle. Inflammation was generated in the rats by subplantar injection of 0.2 ml of 1% carrageenan solution in 0.9 percent saline (Sigma-Aldrich, St. Louis, Mo., USA), and injected into the right hind paw. A vernier caliper (SMIEC, Shanghai, China) was used to measure the thickness of the rat paws before and after carrageenan injection to provide a measure of the inflammation caused by carrageenan.
Paw edema was measured at 0 minutes, 30 minutes, and 1, 2, 3, 4, and 5 hours following administration of the medication. Inhibition of edema was indicated by the reduction of increased thickness when comparing the treated and control groups.

rat stomach [3] = experiment: Ulcerogenic effect on rat stomach (histopathology); type: in vivo; conditions: for Rat stomach collagen deposition, Masson's Trichrome stain, 10× / Rat stomach collagen deposition, Masson's Trichrome stain / Rat stomach collagen deposition, Masson's Trichrome stain, 40×: 20 mg/kg oral single dose, 24 hours; for Rat stomach collagen deposition, Masson's Trichrome stain: 10× and 40×; for Effect on gastric mucosa, in words: rat stomach
Protocol: Rats were starved for 24 hours at a normal room temperature of 25° C. with a 12-hour light/dark cycle. The reference drug for comparison was indomethacin. All compounds were administered orally at a single dose of 20 mg/kg. The rats were sacrificed after 24 hours, and their stomachs were retrieved and cleansed with normal saline. Each group's stomachs were examined using binocular magnification to detect the presence of a gastric lesion on the mucosa. The stomachs were then preserved in 10% w/v formalin for histological analysis. Exemplary photomicrographs are included in FIGS. 5A to 5H, and FIGS. 6A to 6H, as discussed further below.
This was accomplished by histopathologic examination of rat stomachs stained by Masson's Trichrome stain. See the photomicrographs of exemplary sections depicted in FIGS. 6A to 6H. Again, after application of Masson's Trichrome, the collagen fibrils are stained blue-green. The double-headed arrow represents collagen fibrils thickness in the submucosa.

rat paw = experiment: Histopathologic examination of carrageenan-treated rat paw (H&E, Masson's trichrome); type: in vivo; conditions: for Rat paw collagen deposition, Masson's Trichrome stain / Rat paw histopathology, H&E, 10× magnification: 10×; for Rat paw histopathology, H&E: inflammatory reaction and edema: H&E stain
Protocol: The rat paws were removed and promptly cleaned in saline solution. The specimens were then fixed in 10% natural formalin for two days, and then rinsed with running water overnight. The cleaned samples were then dehydrated in increasing concentrations of ethyl alcohol, beginning with 70% and ending with absolute alcohol.
The samples were cleared by soaking them in xylol for 2 hours. The cleared samples were placed in a covered jar containing 50% paraffin in xylol for 3 hours at 37° C. The samples were then immersed in melting paraffin and maintained at 48° C. for 2 hours before being blocked in hard paraffin and cut into 5-micron sections. Hematoxylin and eosin (H&E) and Masson's trichrome were used to stain the sections. To prepare for histopathological investigation, sections of control rat paws, as well as rat paws treated with carrageenan alone or along with Compound 1, Compound 2, or indomethacin, were mounted with Canada balsam and coated with a coverslip.
The density of the blue-green collagen is consistent with the relative amount of deposited total collagen fiber, which represents collagen synthesis, degradation, and remodeling—some of which is associated with inflammation.

HEK293 cells = conditions: 40 μM; for Proliferation of HEK293 (difference in absorbance between 450 and 620 nm), individual wells: WST-1
Protocol: HEK293 cells were treated with the compound solution at 40 μM or the vehicle dimethyl sulfoxide (DMSO) for 24 hours, with the addition of 5% fetal ox-like serum for recognition of cell feasibility reliant on mitochondrial movement.
Three wells were tested for each treatment. WST-1 reagent was added to each well, and the cells were incubated at 37° C.

| SMILES | Rat stomach gastric layers, H&E (rat stomach [1]) | Rat stomach inflammatory reaction, H&E (rat stomach [1]) | Effect on rat paw edema, in words [2] | Paw size ([2]; 30 min) | Paw size ([2]; 1 hour) | Paw size ([2]; 2 hours) | Paw size ([2]; 3 hours) | Paw size ([2]; 4 hours) | Paw size ([2]; 5 hours) | Paw size, Average [2] | Paw size ([2]; zero time) | Rat stomach collagen deposition, Masson's Trichrome stain, 10× (rat stomach [3]) | Rat stomach collagen deposition, Masson's Trichrome stain (rat stomach [3]) | Rat stomach collagen deposition, Masson's Trichrome stain, 40× (rat stomach [3]) | Rat paw collagen deposition, Masson's Trichrome stain (rat paw) | Rat paw histopathology, H&E, 10× magnification (rat paw) | Rat paw histopathology, H&E, 40× magnification (rat paw) | Rat paw histopathology, H&E: inflammatory reaction and edema (rat paw) | Effect on gastric mucosa, in words (rat stomach [3]) | Proliferation of HEK293 (difference in absorbance between 450 and 620 nm), individual wells (HEK293 cells; 24 hours) | further results |
| --- | --- | --- | --- | --- | --- | --- | --- | --- | --- | --- | --- | --- | --- | --- | --- | --- | --- | --- | --- | --- | --- |
| COc1ccc2c(c1)c(CC(=O)O)c(C)n2C(=O)c1ccc(Cl)cc1 [Indomethacin, reference compound] | slight degeneration of gastric layers | absence of any inflammatory reaction; also recorded: no sign of inflammatory reaction | significantly reduced rat paw edema; also recorded: dramatically reduced | 0.7 cm and 0.6 cm (4×) and 0.65 cm (2×) | 0.5 cm (2×) and 0.4 cm (4×) and 0.45 cm | 0.45 cm and 0.4 cm (3×) and 0.35 cm (3×) | 0.4 cm (5×) and 0.35 cm (2×) | 0.35 cm (4×) and 0.4 cm (3×) | 0.5 cm and 0.55 cm (4×) and 0.45 cm (2×) | 0.494 cm | 0.7 cm (2×) and 0.75 cm (5×) | significant collagen deposition | significant collagen deposition | collagen deposition | slight collagen deposition | significant decrease in inflammatory reaction (black star) and a moderate decrease in edema | slight inflammatory reaction (black star) and slight edema | significant decrease in the degree of inflammatory reaction (black star), and a moderate decrease in edema | – | – | – |
| Cc1cccc2[nH]c(C3CCCN(C(=O)c4ccccc4NCC(=O)O)C3)nc12 (stereo not shown) [Compound 1, [(2-{[3-(4-methyl-1H-benzimidazol-2-yl)piperidin-1-yl]carbonyl}phenyl)amino] acetic acid] | normal gastric layers | no sign of inflammatory reaction | demonstrated to treat paw swelling; also recorded: significant decreases in rat paw size; also recorded: dramatically reduced | 0.7 cm (3×) and 0.65 cm (4×) | 0.55 cm and 0.5 cm (4×) and 0.45 cm (2×) | 0.5 cm (2×) and 0.45 cm (3×) and 0.4 cm (2×) | 0.4 cm (3×) and 0.35 cm and 0.45 cm (3×) | 0.45 cm (2×) and 0.4 cm (4×) and 0.5 cm | 0.55 cm and 0.6 cm (4×) and 0.65 cm (2×) | 0.542 cm | 0.75 cm (4×) and 0.7 cm (3×) | normal collagen deposition | normal collagen deposition | normal collagen deposition | slight collagen deposition | significant decrease in dermal thickness, inflammatory reaction in the deep dermis (black star), and moderate improvement in edema | slight inflammatory reaction (black star) and slight edema | reduce inflammatory cell infiltration and alleviate edema with lesser collagen deposition; also recorded: marked improvement in the degree of edema and the inflammatory cell infiltration | no effect on gastric mucosa integrity or mucosa collagen content; also recorded: devoid of side effects on gastric mucosa | 1.0653 and 1.0573 and 1.0547 | Rat stomach inflammatory reaction, H&E (rat stomach [1]; listed as compound 1): absence of any inflammatory reaction; Proliferation of HEK293 (difference in absorbance between 450 and 620 nm), Average (HEK293 cells; 24 hours, WST-1, three wells): 1.06 |
| O=C(O)Cc1ccccc1Nc1c(Cl)cccc1Cl [Diclofenac, reference compound] | – | – | significantly reduced rat paw edema | 0.7 cm and 0.65 cm (4×) and 0.6 cm (2×) | 0.55 cm and 0.5 cm (3×) and 0.4 cm (2×) and 0.45 cm | 0.45 cm (4×) and 0.4 cm (3×) | 0.4 cm (4×) and 0.35 cm (2×) and 0.45 cm | 0.35 cm (2×) and 0.4 cm (3×) and 0.45 cm (2×) | 0.55 cm (3×) and 0.6 cm (4×) | 0.518 cm | 0.7 cm (5×) and 0.75 cm (2×) | – | – | – | – | – | – | – | – | – | Proliferation of HEK293 (difference in absorbance between 450 and 620 nm), Average (HEK293 cells; human, 24 h): 1 |
| Cc1ccc(-c2cc(C(F)(F)F)nn2-c2ccc(S(N)(=O)=O)cc2)cc1 [Celecoxib, reference compound] | – | – | dramatically reduced | – | – | – | – | – | – | – | – | – | – | – | – | – | – | – | – | – | Cytotoxicity: morphological changes or damages in HEK293 cells (HEK293 cells; human, 24 h): caused changes and damages in HEK293 cells |
| CCOC(=O)c1cn(-c2cc(C#N)ccc2O)cc(Oc2ccccc2)c1=O [Compound 2, ethyl-1-(5-cyano-2-hydroxyphenyl)-4-oxo-5-phenoxy-1,4-dihydropyridine-3-carboxylate] | normal gastric layers | absence of any inflammatory reaction; also recorded: no sign of inflammatory reaction | demonstrated to treat paw swelling; also recorded: significant decreases in rat paw size; also recorded: dramatically reduced | 0.7 cm (3×) and 0.65 cm (2×) and 0.55 cm (2×) | 0.55 cm and 0.5 cm (3×) and 0.45 cm (3×) | 0.45 cm (2×) and 0.4 cm (5×) | 0.35 cm and 0.4 cm (5×) and 0.45 cm | 0.4 cm (5×) and 0.45 cm (2×) | 0.55 cm and 0.6 cm (5×) and 0.5 cm | 0.524 cm | 0.75 cm (5×) and 0.7 cm (2×) | slight collagen deposition | slight collagen deposition | slight collagen deposition | slight collagen deposition; also recorded: lowest | substantial decrease in both inflammatory reaction (black star) and edema | slight inflammatory reaction (black star) and slight edema | reduce inflammatory cell infiltration and alleviate edema with lesser collagen deposition; also recorded: substantial decrease in both inflammatory reaction (black star) and a pronounced decline in edema | no effect on gastric mucosa integrity or mucosa collagen content; also recorded: devoid of side effects on gastric mucosa | 1.0667 and 1.0476 and 1.0648 | Proliferation of HEK293 (difference in absorbance between 450 and 620 nm), Average (HEK293 cells; 24 hours, WST-1, three wells): 1.06 |
